According to PubChem BioAssay (NCI):
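GI50: concentration for 50% inhibition of growth. TGI: concentration producing complete growth inhibition.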

Tests used:
Test in all cases: NCI-60 cell line screen, 384-well format
HL-60(TB) leukemia = tested on: HL-60(TB) leukemia
UACC-257 melanoma = tested on: UACC-257 melanoma
RPMI-8226 leukemia = tested on: RPMI-8226 leukemia
SNB-75 CNS = tested on: SNB-75 CNS
MALME-3M melanoma = tested on: MALME-3M melanoma
HOP-92 NSCLC = tested on: HOP-92 NSCLC
SK-MEL-2 melanoma = tested on: SK-MEL-2 melanoma
SN12C renal = tested on: SN12C renal
HS 578T breast = tested on: HS 578T breast
NCI-H522 lung = tested on: NCI-H522 lung
T-47D breast = tested on: T-47D breast
MDA-MB-231 breast = tested on: MDA-MB-231 breast
SF-268 CNS = tested on: SF-268 CNS
SF-539 CNS = tested on: SF-539 CNS
UACC-62 melanoma = tested on: UACC-62 melanoma
A549 NSCLC = tested on: A549 NSCLC
KM12 colon = tested on: KM12 colon
OVCAR-4 ovarian = tested on: OVCAR-4 ovarian
SR leukemia = tested on: SR leukemia
PC-3 prostate = tested on: PC-3 prostate
SK-MEL-5 melanoma = tested on: SK-MEL-5 melanoma
CAKI-1 renal = tested on: CAKI-1 renal
RXF 393 renal = tested on: RXF 393 renal
786-0 renal = tested on: 786-0 renal

Compound: CNCc1ccccc1-c1csc([C@@H](C)Nc2nc(C)nc3cc(OC)c(OC)cc23)c1
- GI50 (HL-60(TB) leukemia): 1080 nM
- TGI (HL-60(TB) leukemia): 2270 nM
- GI50 (UACC-257 melanoma): 275 nM
- TGI (UACC-257 melanoma): 810 nM
- GI50 (RPMI-8226 leukemia): 643 nM
- TGI (RPMI-8226 leukemia): 1980 nM
- GI50 (SNB-75 CNS): 1300 nM
- TGI (SNB-75 CNS): 2570 nM
- GI50 (MALME-3M melanoma): 1560 nM
- TGI (MALME-3M melanoma): 2900 nM
- GI50 (HOP-92 NSCLC): 171 nM
- TGI (HOP-92 NSCLC): 1290 nM
- GI50 (SK-MEL-2 melanoma): 1320 nM
- TGI (SK-MEL-2 melanoma): 2590 nM
- GI50 (SN12C renal): 1030 nM
- TGI (SN12C renal): 2200 nM
- GI50 (HS 578T breast): 302 nM
- TGI (HS 578T breast): 2110 nM
- GI50 (NCI-H522 lung): 1160 nM
- TGI (NCI-H522 lung): 2390 nM
- GI50 (T-47D breast): 1130 nM
- TGI (T-47D breast): 2340 nM
- GI50 (MDA-MB-231 breast): 1720 nM
- TGI (MDA-MB-231 breast): 3100 nM
- GI50 (SF-268 CNS): 1610 nM
- TGI (SF-268 CNS): 2960 nM
- GI50 (SF-539 CNS): 1140 nM
- TGI (SF-539 CNS): 2360 nM
- GI50 (UACC-62 melanoma): 1700 nM
- TGI (UACC-62 melanoma): 3080 nM
- GI50 (A549 NSCLC): 1670 nM
- TGI (A549 NSCLC): 3040 nM
- GI50 (KM12 colon): 914 nM
- TGI (KM12 colon): 2140 nM
- GI50 (OVCAR-4 ovarian): 1140 nM
- TGI (OVCAR-4 ovarian): 2380 nM
- GI50 (SR leukemia): 676 nM
- TGI (SR leukemia): 1940 nM
- GI50 (PC-3 prostate): 1530 nM
- TGI (PC-3 prostate): 2970 nM
- GI50 (SK-MEL-5 melanoma): 1150 nM
- TGI (SK-MEL-5 melanoma): 2370 nM
- GI50 (CAKI-1 renal): 1050 nM
- TGI (CAKI-1 renal): 2220 nM
- GI50 (RXF 393 renal): 414 nM
- TGI (RXF 393 renal): 1670 nM
- GI50 (786-0 renal): 1240 nM
